pIC50: −log10 of the molar value.
Key:
[1] = molecular target: HLA-DRB1*0301 (DR3) (Homo sapiens, UniProt P01903+P01911, A100K/A102G/A103R/A169T/F55Y/I96L/K41T/L162R/M171V/P40S/Q125H/Q178H/Q39Y/R42S/S66N/T106N/T262R/W38E/Y61H); assay: HLA class II binding assay, DRB1*0301 (DR3); conditions: read-out: DR3 binding affinity
Procedure: Conversely, The DR supertype cross-reactive binding peptides were also tested for DR3 binding capacity.

[2] = molecular target: HLA-A*3301 (Homo sapiens, UniProt P04439, A270S/D185E/E176V/E277Q/E87N/F33T/G231S/H175R/I121M/I218V/I322F/K168Q/K210R/L300P/L318F/M331R/P217A/Q86R/Q94H/R138Q/T323A/T345S/T97I/V358M/Y195H); assay: HLA class I binding assay, purified HLA-A*3301; conditions: Table XXIII, binding affinity
[3] = molecular target: HLA-A*0301 (Homo sapiens, UniProt P04439); assay: HLA class I binding assay, purified HLA-A*0301; conditions: Table XXIII, binding affinity
[4] = molecular target: HLA-A*6801 (Homo sapiens, UniProt P04439, A269V/D185E/E176V/E277Q/E87N/F33Y/G231S/I121M/I166T/I218V/L180W/L300P/L318F/N151K/P208A/P217A/Q86R/R169H/T345S); assay: HLA class I binding assay, purified HLA-A*6801; conditions: Table XXIII, binding affinity
[5] = molecular target: HLA-A*1101 (Homo sapiens, UniProt P04439, A114D/D185E/E176A/F33Y/L180Q/S129P/T187R); assay: HLA class I binding assay, purified HLA-A*1101; conditions: Table XXIII, binding affinity
[6] = test system: tumor targets that endogenously express CEA (SW403, HT-20, KATO III); assay: 51Cr release against tumor targets (endogenous recognition); format: cell-based, human; conditions: number of donors yielding a positive response/total tested
Procedure: (§1) The colon adenocarcinoma cell lines SW403 and […], the osteosarcoma line Saos-2 and the breast tumor line BT540 were obtained from the American Type Culture Collection (ATCC) (Rockville, Md.). The gastric cancer line, KATO III was obtained from the Japanese Cancer Research Resources Bank. […] The melanoma, colon and gastric cancer cells were treated with 100 U/ml IFN (Genzyme) for 48 hours at 37° C. before use as targets in the ^51Cr release and in situ IFN assays.
Restimulation of the induction cultures with peptide-pulsed adherent cells: Seven and fourteen days after the primary induction the cells were restimulated with peptide-pulsed adherent cells. […] After expansion, activity was measured in both assays for a side by side comparison.
Seven days after the second restimulation, cytotoxicity was determined in a standard (5 hr) ^51Cr release assay by assaying individual wells at a single E:T. Peptide-pulsed targets were prepared by incubating the cells with 10 μg/ml peptide overnight at 37° C.
Adherent target cells were removed from culture flasks with trypsin-EDTA. […] At that time, 100 μl of supernatant were collected from each well and percent lysis was determined according to the formula: [(cpm of the test sample−cpm of the spontaneous ^51Cr release sample)/(cpm of the maximal ^51Cr release sample-cpm of the spontaneous ^51Cr release sample)]×100. […]

[7] = test system: .221A2.1 cells pulsed with peptide; assay: Primary in vitro CTL induction, 51Cr release against peptide-pulsed targets; format: cell-based, human; conditions: number of donors yielding a positive response/total tested
Procedure: as §1
The monocytes were purified by plating 10×10^6 PBMC/well in a 6-well plate. After 2 hours at 37° C., the non-adherent cells were removed by gently shaking the plates and aspirating the supernatants. The wells were washed a total of three times with 3 ml RPMI to remove most of the non-adherent and loosely adherent cells. Three ml of complete medium containing 50 ng/ml of GM-CSF and 1,000 U/ml of IL-4 were then added to each well. […]
Induction of CTL with DC and Peptide: CD8+ T-cells were isolated by positive selection with Dynal immunomagnetic beads (Dynabeads® M-450) and the detacha-bead® reagent. […] The DC were collected and centrifuged at 1300 rpm for 5-7 minutes, washed once with PBS with 1% BSA, counted and pulsed with 40 μg/ml of peptide at a cell concentration of 1-2×10^6/ml in the presence of 3 μg/ml β2-microglobulin for 4 hours at 20° C. The DC were then irradiated (4,200 rads), washed 1 time with medium and counted again. […]

Sequence of HLA-DRB1*0301 (DR3) (P01903 26-254 limits assumed, other chains not shown): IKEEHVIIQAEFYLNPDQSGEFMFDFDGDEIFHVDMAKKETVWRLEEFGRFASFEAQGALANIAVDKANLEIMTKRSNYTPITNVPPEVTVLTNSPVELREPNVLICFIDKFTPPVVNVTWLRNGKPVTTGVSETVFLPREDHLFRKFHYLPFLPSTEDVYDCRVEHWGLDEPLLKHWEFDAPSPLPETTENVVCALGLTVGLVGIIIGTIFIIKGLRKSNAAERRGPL
Sequence of HLA-A*1101 (P04439 25-365 limits assumed, stated change not applied): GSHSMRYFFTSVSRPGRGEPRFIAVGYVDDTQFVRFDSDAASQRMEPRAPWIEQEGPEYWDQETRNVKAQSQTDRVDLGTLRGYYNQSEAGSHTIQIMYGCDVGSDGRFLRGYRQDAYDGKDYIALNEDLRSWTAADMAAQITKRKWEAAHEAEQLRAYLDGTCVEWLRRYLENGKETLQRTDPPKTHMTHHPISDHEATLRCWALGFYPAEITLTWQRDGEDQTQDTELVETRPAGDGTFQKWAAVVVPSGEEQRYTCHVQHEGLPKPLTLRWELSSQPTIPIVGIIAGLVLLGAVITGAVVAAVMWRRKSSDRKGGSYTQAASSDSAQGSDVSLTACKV

Molecule `CC[C@H](C)[C@H](NC(=O)[C@@H](NC(=O)[C@H](Cc1c[nH]cn1)NC(=O)[C@@H](N)CC(C)C)C(C)C)C(=O)N[C@@H](CCCCN)C(=O)N[C@@H](CO)C(=O)N[C@@H](CC(=O)O)C(=O)N[C@@H](CC(C)C)C(=O)N[C@H](C(=O)N[C@@H](CC(N)=O)C(=O)N[C@@H](CCC(=O)O)C(=O)N[C@@H](CCC(=O)O)C(=O)N[C@@H](C)C(=O)N[C@H](C(=O)NCC(=O)O)[C@@H](C)O)C(C)C` [CEA.122] has a pIC50 [1] of 5.64.
`CC(C)[C@H](NC(=O)[C@@H](N)[C@@H](C)O)C(=O)N[C@@H](CO)C(=O)N1CCC[C@H]1C(=O)N[C@@H](CO)C(=O)N[C@@H](Cc1ccc(O)cc1)C(=O)N[C@H](C(=O)N[C@@H](Cc1ccc(O)cc1)C(=O)N[C@@H](Cc1ccc(O)cc1)C(=O)N[C@@H](CCCNC(=N)N)C(=O)O)[C@@H](C)O` [CEA.419.V2] showed a pIC50 [2] of 6.58, a pIC50 [3] of 5.63 and a pIC50 [4] of 8.07. The pIC50 [5] was 5.52.
For `CC(C)C[C@H](NC(=O)[C@H](CC(N)=O)NC(=O)[C@H](CC(C)C)NC(=O)[C@H](CC(N)=O)NC(=O)[C@H](C)NC(=O)CNC(=O)[C@H](CO)NC(=O)[C@H](CC(C)C)NC(=O)[C@@H](N)Cc1ccc(O)cc1)C(=O)O` [compound 605], the “CTL Tumor” value ([6]; Table XXVIIa) was 1/2, the “CTL Tumor” value ([6]; Table XXVIIb) was 1/2 and the “CTL Wildtype” value ([7]; Table XXVIIa) was 2/2. The “CTL Wild-type” value ([7]; Table XXVIIb) was 2/2.
